Where two headings read alike, the source gives them in different places. Where a SMILES comes first, the peptide text is derived from it. Bridges are numbered along the chain shown (N, C = ends). Where no end group is shown, it is not given here. [ ]: non-standard residue; d: D form. NMeR = CN[C@@H](CCCNC(=N)N)C(=O)O; NMeT = CN[C@H](C(=O)O)[C@@H](C)O; NMeN = CN[C@@H](CC(N)=O)C(=O)O; NMeC = CN[C@@H](CS)C(=O)O; βAla = NCCC(=O)O
Experiments:
[1] = molecular target: c-Met-Fc (Homo sapiens, UniProt P08581); assay: Binding ability by surface plasmon resonance (SPR, Biacore); details: for kon: read-out: ka
c-Met-Fc, sequence (P08581 with tags, fused parts or gaps limits assumed): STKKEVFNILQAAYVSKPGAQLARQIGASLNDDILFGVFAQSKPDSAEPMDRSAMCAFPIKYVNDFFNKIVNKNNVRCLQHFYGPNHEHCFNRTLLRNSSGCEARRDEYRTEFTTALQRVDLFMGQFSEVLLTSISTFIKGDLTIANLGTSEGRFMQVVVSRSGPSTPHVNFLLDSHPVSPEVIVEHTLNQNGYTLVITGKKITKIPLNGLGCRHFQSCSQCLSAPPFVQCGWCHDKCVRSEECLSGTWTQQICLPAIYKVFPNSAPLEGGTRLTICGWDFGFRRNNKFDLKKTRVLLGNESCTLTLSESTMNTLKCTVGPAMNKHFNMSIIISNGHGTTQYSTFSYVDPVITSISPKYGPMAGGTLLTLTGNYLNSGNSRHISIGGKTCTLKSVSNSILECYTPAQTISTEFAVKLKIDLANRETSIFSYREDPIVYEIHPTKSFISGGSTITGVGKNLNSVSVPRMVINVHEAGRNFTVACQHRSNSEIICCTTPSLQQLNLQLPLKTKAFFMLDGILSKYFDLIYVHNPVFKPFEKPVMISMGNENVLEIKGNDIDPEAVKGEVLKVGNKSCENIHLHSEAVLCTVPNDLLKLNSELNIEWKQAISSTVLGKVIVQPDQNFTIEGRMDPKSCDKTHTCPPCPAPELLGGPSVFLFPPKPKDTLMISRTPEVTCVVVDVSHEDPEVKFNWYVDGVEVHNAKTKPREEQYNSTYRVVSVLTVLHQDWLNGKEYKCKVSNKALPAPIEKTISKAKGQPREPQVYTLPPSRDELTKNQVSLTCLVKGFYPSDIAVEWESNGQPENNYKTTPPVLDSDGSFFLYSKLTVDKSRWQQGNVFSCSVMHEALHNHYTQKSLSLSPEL
c-Met-Fc, sequence (P08581 25-307 limits assumed): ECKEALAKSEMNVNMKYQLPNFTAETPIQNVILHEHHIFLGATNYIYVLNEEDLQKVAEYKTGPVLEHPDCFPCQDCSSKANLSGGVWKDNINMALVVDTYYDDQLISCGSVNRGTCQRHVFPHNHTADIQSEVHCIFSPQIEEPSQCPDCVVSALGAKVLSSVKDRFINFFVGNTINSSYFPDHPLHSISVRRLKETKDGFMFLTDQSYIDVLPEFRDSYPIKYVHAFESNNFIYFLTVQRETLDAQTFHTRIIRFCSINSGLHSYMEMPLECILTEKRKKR
Description: Binding ability of the thioether macrocyclic peptide was evaluated by SPR measurement using Biacore (GE Healthcare).
As a sensor chip, Sensor Chip CM5 was used and an anti-IgG antibody was immobilized on a measurement lane and a control lane by using Human Antibody Capture Kit.
On the measurement lane was immobilized c-Met-Fc, while on the control lane was immobilized Fc protein.
As a running buffer, HBS-EP+ buffer containing 0.1% DMSO was used and a dissociation constant of the thioether macrocyclic peptide was calculated at 5 different concentrations by using the single-kinetics method.

[2] = molecular target: T1, c-Met (Homo sapiens, UniProt P08581); assay: Activity of dimeric peptide by ELISA (c-Met phosphorylation level in EHMES-1 cells); format: cell-based; details: for Activity (c-Met phosphorylation level by ELISA): Table 12, EHMES-1 cells, 10 minutes stimulation; for c-Met phosphorylation: Table 13
T1 construct: endogenous in cells; host or cells: EHMES-1 (human mesothelioma)
T1 sequence (P08581 25-1390): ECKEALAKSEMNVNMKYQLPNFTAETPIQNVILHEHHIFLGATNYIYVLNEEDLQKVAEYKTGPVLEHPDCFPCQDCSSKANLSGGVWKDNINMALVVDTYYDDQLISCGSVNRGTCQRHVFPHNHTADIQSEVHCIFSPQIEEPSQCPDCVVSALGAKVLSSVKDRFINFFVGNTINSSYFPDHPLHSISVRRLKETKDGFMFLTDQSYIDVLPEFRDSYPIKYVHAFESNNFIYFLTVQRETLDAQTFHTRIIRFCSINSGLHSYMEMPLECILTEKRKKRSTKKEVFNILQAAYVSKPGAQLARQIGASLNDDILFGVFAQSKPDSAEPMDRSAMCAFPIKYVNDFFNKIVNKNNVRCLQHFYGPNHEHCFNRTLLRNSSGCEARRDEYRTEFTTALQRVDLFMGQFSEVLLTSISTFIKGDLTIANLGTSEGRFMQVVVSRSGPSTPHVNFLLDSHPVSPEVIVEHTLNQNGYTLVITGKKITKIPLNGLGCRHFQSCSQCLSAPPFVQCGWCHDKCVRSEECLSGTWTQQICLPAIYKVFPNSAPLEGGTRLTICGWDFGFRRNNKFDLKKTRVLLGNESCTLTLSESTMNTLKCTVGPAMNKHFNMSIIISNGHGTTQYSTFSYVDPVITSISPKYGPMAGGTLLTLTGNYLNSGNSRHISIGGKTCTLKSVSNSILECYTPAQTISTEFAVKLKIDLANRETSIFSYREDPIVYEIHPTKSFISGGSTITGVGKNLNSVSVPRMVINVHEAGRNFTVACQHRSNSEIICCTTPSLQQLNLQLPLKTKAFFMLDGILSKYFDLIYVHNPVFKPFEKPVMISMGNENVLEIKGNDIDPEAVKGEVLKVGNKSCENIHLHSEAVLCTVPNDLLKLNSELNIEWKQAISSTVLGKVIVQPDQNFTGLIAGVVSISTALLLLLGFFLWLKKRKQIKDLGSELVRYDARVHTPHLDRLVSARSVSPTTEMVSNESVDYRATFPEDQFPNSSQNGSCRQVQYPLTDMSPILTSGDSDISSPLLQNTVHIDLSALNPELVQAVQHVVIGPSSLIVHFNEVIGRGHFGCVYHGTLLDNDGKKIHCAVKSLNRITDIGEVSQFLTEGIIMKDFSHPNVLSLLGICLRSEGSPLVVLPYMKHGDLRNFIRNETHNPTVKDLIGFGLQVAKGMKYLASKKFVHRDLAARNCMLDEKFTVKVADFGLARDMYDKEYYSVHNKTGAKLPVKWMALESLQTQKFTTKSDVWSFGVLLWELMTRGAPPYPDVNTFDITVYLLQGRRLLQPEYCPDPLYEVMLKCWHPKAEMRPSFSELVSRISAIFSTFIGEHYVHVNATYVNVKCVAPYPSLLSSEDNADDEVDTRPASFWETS
Description: Each dimeric peptide was added to human EHMES-1 cells and the mixture was incubated for 10 minutes to stimulate the cells.
As a control experiment, a recombinant human HGF protein was added and the mixture was incubated for 10 minutes to stimulate cells.
A phosphorylation level of c-Met was quantitatively analyzed using ELISA.

[3] = test system: human HuCCT1 cells; assay: Cell migration of HuCCT1 cells on pore-containing plate; format: cell-based; details: Table 13
Description: In addition, human HuCCT1 cells were seeded on a pore-containing plate and cultured in a medium mixed with each of the dimeric peptides to evaluate activation of cell migration ability.

[4] = Stability of thioether macrocyclic peptide in human serum pool (LC-MS); format: in vitro ADME; details: for remaining at 1 h, 1 μM: Table 8; for remaining at 1 h, 1 μM / remaining at 4 h, 1 μM: human serum pool; for remaining at 4 h, 1 μM: Table 9; for Stability in serum (in words): human serum
Description: A DMSO solution of the thioether macrocyclic peptide to be evaluated was dissolved in a human serum pool to give a concentration of 1 μM. The human serum pool containing the thioether macrocyclic peptide thus prepared was incubated at 37° C.
After an elapse of the evaluation time, the human serum pool containing the thioether macrocyclic peptide was placed on ice and a peptide serving as an internal standard was added and mixed to give a concentration of 1 μM. The resulting mixture was added to a solid-phase extraction column (Hyper Sep SPE column, Thermo Scientific), washed with a 5% aqueous acetonitrile solution containing 0.1% TFA, and then purified by eluting with a 70% aqueous acetonitrile solution containing 0.1% TFA.
The molecular weight of the purified product was analyzed using LC-MS and the cleavage site in the serum was identified. In addition, the thioether macrocyclic peptide which had remained without being cleaved was quantitatively determined by comparing an amount relative to the internal standard at every incubation time.

[5] = Table 11, monomer and dimeric peptides

Row | Compound | Activity (c-Met phosphorylation level by ELISA) [2] | c-Met phosphorylation [2] | kd ([1]; Table 8, c-Met-Fc) | kon ([1]; Table 8, c-Met-Fc) | remaining at 1 h, 1 μM ([4]; 37° C.) | Stability in serum (in words) [4] | Cell migration [3] | also measured
1 | D4-3 Bis-MAL-PEG11: dimeric peptide: two D4-3 macrocycles linked through C-terminal Cys by Bis-MAL-PEG11 linker ({CH2CO}-[dY]RQFNRRTHEVWNLDCGC; thioether N-16; not fully specified (residue 18); also: dimer: two copies joined by Bis-MAL-PEG11, linker at 18 via Bis-MAL-PEG11, other end not in the chain) | High | Promote |  |  |  |  | Activate | ka [1, 5]: 1.2 10^6 M^−1s^−1; kd [1, 5]: 0.11 10^−2 s^−1
2 | D4-3NMe Bis-MAL-PEG11: dimeric peptide: two D4-3NMe macrocycles linked through C-terminal Cys by Bis-MAL-PEG11 linker ({CH2CO}-[dY]RQFNRRTHEVWNLDCGC; thioether N-16; not fully specified (residue 18); also: two amino acids N-methylated (N6 + N16), dimer: two D4-3NMe macrocycles linked through C-terminal Cys by Bis-MAL-PEG11) | High | Promote |  |  |  |  | Activate | ka [1, 5]: 0.49 10^6 M^−1s^−1; kd [1, 5]: 0.040 10^−2 s^−1
3 | L5-2 Bis-MAL-PEG3: dimeric peptide: two L5-2 macrocycles linked through C-terminal Cys by Bis-MAL-PEG3 linker ({CH2CO}-YISWNEFNSPNWRFITCG[βAla]C-NH2; thioether N-17; not fully specified (residue 20); also: dimer: two copies joined by Bis-MAL-PEG3, linker at 20 via Bis-MAL-PEG3, other end not in the chain) | High | Promote |  |  |  |  | Activate | ka [1, 5]: 0.22 10^6 M^−1s^−1; kd [1, 5]: 0.042 10^−2 s^−1
4 | D4-3scr BMH: dimer of the negative control peptide D4-3scr with BMH linker ({CH2CO}-YERVNHLFRNQTWDRCGC; thioether N-16 (inferred); also: dimer of D4-3scr with BMH linker) [reference compound] | No | Not promote |  |  |  |  | Not activate | KD [1, 5]: Not binding
5 | CC(C)C[C@@H]1NC(=O)[C@H](CC(N)=O)NC(=O)[C@H](Cc2c[nH]c3ccccc23)NC(=O)[C@H](C(C)C)NC(=O)[C@H](CCC(=O)O)NC(=O)[C@H](Cc2c[nH]cn2)NC(=O)[C@H]([C@@H](C)O)NC(=O)[C@H](CCCNC(=N)N)NC(=O)[C@H](CCCNC(=N)N)N(C)C(=O)[C@H](CC(N)=O)NC(=O)[C@H](Cc2ccccc2)NC(=O)[C@H](CCC(N)=O)NC(=O)[C@H](CCCNC(=N)N)NC(=O)[C@@H](Cc2ccc(O)cc2)NC(=O)CSC[C@@H](C(=O)NCC(N)=O)N(C)C(=O)[C@H](CC(=O)O)NC1=O [Peptide D4-3NMe] ({CH2CO}-[dY]RQFN[NMeR]RTHEVWNLD[NMeC]G-NH2; thioether N-16) |  |  |  |  |  | considerably excellent |  | Kd ([1]; Table 9, c-Met-Fc): 5.2 nM; kon ([1]; Table 9, c-Met-Fc): 390000 M⁻¹ s⁻¹; remaining at 4 h, 1 μM ([4]; 37° C., 4 h): 63%; Stability in human serum (undegraded portion/time) ([4]; Table 10, 4 h, 37° C.): 67%/4 h

Further lines, with some results ahead:

Row | Activity (c-Met phosphorylation level by ELISA) [2] | c-Met phosphorylation [2] | kd ([1]; Table 8, c-Met-Fc) | kon ([1]; Table 8, c-Met-Fc) | remaining at 1 h, 1 μM ([4]; 37° C.) | Stability in serum (in words) [4] | Compound | Cell migration [3] | also measured
6 |  |  | 1.0 10^−2 s^−1 | 710000 M⁻¹ s⁻¹ | 5.4% |  | CC(C)C[C@@H]1NC(=O)[C@H](CC(N)=O)NC(=O)[C@H](Cc2c[nH]c3ccccc23)NC(=O)[C@H](C(C)C)NC(=O)[C@H](CCC(=O)O)NC(=O)[C@H](Cc2c[nH]cn2)NC(=O)[C@H]([C@@H](C)O)NC(=O)[C@H](CCCNC(=N)N)NC(=O)[C@H](CCCNC(=N)N)NC(=O)[C@H](CC(N)=O)NC(=O)[C@H](Cc2ccccc2)NC(=O)[C@H](CCC(N)=O)NC(=O)[C@H](CCCNC(=N)N)N(C)C(=O)[C@@H](Cc2ccc(O)cc2)NC(=O)CSC[C@@H](C(=O)NCC(N)=O)NC(=O)[C@H](CC(=O)O)NC1=O [Peptide N2] ({CH2CO}-[dY][NMeR]QFNRRTHEVWNLDCG-NH2; thioether N-16; C-terminus assumed) |  | 
7 |  |  | 1.0 10^−2 s^−1 | 980000 M⁻¹ s⁻¹ | 12% |  | CC(C)C[C@@H]1NC(=O)[C@H](CC(N)=O)NC(=O)[C@H](Cc2c[nH]c3ccccc23)NC(=O)[C@H](C(C)C)NC(=O)[C@H](CCC(=O)O)NC(=O)[C@H](Cc2c[nH]cn2)NC(=O)[C@H]([C@@H](C)O)NC(=O)[C@H](CCCNC(=N)N)NC(=O)[C@H](CCCNC(=N)N)NC(=O)[C@H](CC(N)=O)NC(=O)[C@H](Cc2ccccc2)NC(=O)[C@H](CCC(N)=O)NC(=O)[C@H](CCCNC(=N)N)NC(=O)[C@@H](Cc2ccc(O)cc2)NC(=O)CSC[C@@H](C(=O)NCC(N)=O)N(C)C(=O)[C@H](CC(=O)O)NC1=O [Peptide N16] ({CH2CO}-[dY]RQFNRRTHEVWNLD[NMeC]G-NH2; thioether N-16; C-terminus assumed) |  | ka ([1]; Table 9, c-Met-Fc): 9.8 10^5 M^−1s^−1; kd ([1]; Table 9, c-Met-Fc): 1.0 10^−2s^−1; remaining at 4 h, 1 μM ([4]; 37° C., 4 h): < 12%
8 |  |  | 0.41 10^−2 s^−1 | 120000 M⁻¹ s⁻¹ | 85% | drastically improved | CC(C)C[C@@H]1NC(=O)[C@H](CC(N)=O)NC(=O)[C@H](Cc2c[nH]c3ccccc23)NC(=O)[C@H](C(C)C)NC(=O)[C@H](CCC(=O)O)NC(=O)[C@H](Cc2c[nH]cn2)NC(=O)[C@H]([C@@H](C)O)NC(=O)[C@H](CCCNC(=N)N)NC(=O)[C@H](CCCNC(=N)N)N(C)C(=O)[C@H](CC(N)=O)NC(=O)[C@H](Cc2ccccc2)NC(=O)[C@H](CCC(N)=O)NC(=O)[C@H](CCCNC(=N)N)NC(=O)[C@@H](Cc2ccc(O)cc2)NC(=O)CSC[C@@H](C(=O)NCC(N)=O)NC(=O)[C@H](CC(=O)O)NC1=O [Peptide N6] ({CH2CO}-[dY]RQFN[NMeR]RTHEVWNLDCG-NH2; thioether N-16; C-terminus assumed) |  | Binding ability (in words) [1]: do not show marked deterioration; ka ([1]; Table 9, c-Met-Fc): 1.2 10^5 M^−1s^−1; kd ([1]; Table 9, c-Met-Fc): 0.41 10^−2s^−1; remaining at 4 h, 1 μM ([4]; 37° C., 4 h): 67%
9 |  |  | 6.9 10^−2 s^−1 | 53000 M⁻¹ s⁻¹ | 92% | drastically improved | CC(C)C[C@@H]1NC(=O)[C@H](CC(N)=O)NC(=O)[C@H](Cc2c[nH]c3ccccc23)NC(=O)[C@H](C(C)C)NC(=O)[C@H](CCC(=O)O)NC(=O)[C@H](Cc2c[nH]cn2)NC(=O)[C@H]([C@@H](C)O)NC(=O)[C@H](CCCNC(=N)N)N(C)C(=O)[C@H](CCCNC(=N)N)NC(=O)[C@H](CC(N)=O)NC(=O)[C@H](Cc2ccccc2)NC(=O)[C@H](CCC(N)=O)NC(=O)[C@H](CCCNC(=N)N)NC(=O)[C@@H](Cc2ccc(O)cc2)NC(=O)CSC[C@@H](C(=O)NCC(N)=O)NC(=O)[C@H](CC(=O)O)NC1=O [Peptide N7] ({CH2CO}-[dY]RQFNR[NMeR]THEVWNLDCG-NH2; thioether N-16; C-terminus assumed) |  | Binding ability (in words) [1]: do not show marked deterioration
10 |  |  |  | 27000 M⁻¹ s⁻¹ | 81% | drastically improved | CC(C)C[C@@H]1NC(=O)[C@H](CC(N)=O)NC(=O)[C@H](Cc2c[nH]c3ccccc23)NC(=O)[C@H](C(C)C)NC(=O)[C@H](CCC(=O)O)NC(=O)[C@H](Cc2c[nH]cn2)NC(=O)[C@H]([C@@H](C)O)N(C)C(=O)[C@H](CCCNC(=N)N)NC(=O)[C@H](CCCNC(=N)N)NC(=O)[C@H](CC(N)=O)NC(=O)[C@H](Cc2ccccc2)NC(=O)[C@H](CCC(N)=O)NC(=O)[C@H](CCCNC(=N)N)NC(=O)[C@@H](Cc2ccc(O)cc2)NC(=O)CSC[C@@H](C(=O)NCC(N)=O)NC(=O)[C@H](CC(=O)O)NC1=O [Peptide N8] ({CH2CO}-[dY]RQFNRR[NMeT]HEVWNLDCG-NH2; thioether N-16; C-terminus assumed) |  | 
11 |  |  |  | 78000 M⁻¹ s⁻¹ | 4.5% |  | CC(C)C[C@@H]1NC(=O)[C@H](CC(N)=O)N(C)C(=O)[C@H](Cc2c[nH]c3ccccc23)NC(=O)[C@H](C(C)C)NC(=O)[C@H](CCC(=O)O)NC(=O)[C@H](Cc2c[nH]cn2)NC(=O)[C@H]([C@@H](C)O)NC(=O)[C@H](CCCNC(=N)N)NC(=O)[C@H](CCCNC(=N)N)NC(=O)[C@H](CC(N)=O)NC(=O)[C@H](Cc2ccccc2)NC(=O)[C@H](CCC(N)=O)NC(=O)[C@H](CCCNC(=N)N)NC(=O)[C@@H](Cc2ccc(O)cc2)NC(=O)CSC[C@@H](C(=O)NCC(N)=O)NC(=O)[C@H](CC(=O)O)NC1=O [Peptide N13] ({CH2CO}-[dY]RQFNRRTHEVW[NMeN]LDCG-NH2; thioether N-16; C-terminus assumed) |  | 

Source: patent US9994616B2, “c-Met protein agonist” (The University of Tokyo, priority 2013, dated 2018)
